Values quoted from earlier work, collected in patent publication US20210361700A1 (priority 2020, published 2021).
Entries after “also recorded” stand apart in the source; their conditions may differ. Where two headings read alike, the source gives them in different places.

Experiments:
[1] = system: acute respiratory infections; conditions: for colds: secondary analysis, older adults
[2] = system: T cell function; conditions: for T cell function in older adults: supplementation
[3] = system: influenza
[4] = system: vascular endothelial function; conditions: meta-analyses of randomized controlled trials
[5] = system: hepatitis B and tetanus vaccines; conditions: for antibody titer / antibody response to vaccines: in vivo
[6] = system: strep pneumonia; conditions: old mice; by reducing neutrophil migration and inflammatory cytokines
[7] = system: colds or influenza
[8] = target: 3CLpro of SARS-CoV (Severe acute respiratory syndrome coronavirus, UniProt P0C6X7)
[9] = system: influenza, adenovirus, Ebola, and others; conditions: high affinity, nonspecific binding to viral surface proteins
[10] = system: pro-inflammatory cytokines, such as TNF-α, IL-6 and IL-8; conditions: acute viral respiratory infection
[11] = system: TLR4 and NF-κB protein levels, ROS, acute tissue injury; conditions: models of lung injury
[12] = system: endothelial cells
[13] = system: influenza vaccine; conditions: experimental models, including influenza vaccine
[14] = system: common cold (often caused by coronaviruses); conditions: short-term zinc supplementation at onset of symptoms; 17 RCTs pooled; 95% CI 0.81 to 2.50; listed as zinc
[15] = system: acute respiratory infections; conditions: for lower respiratory infection: zinc supplementation, older adults
[16] = target: RNA-dependent RNA polymerase of SARS-CoV (Severe acute respiratory syndrome coronavirus, UniProt P0C6X7)
[17] = system: inflammation
[18] = system: upper respiratory infection
[19] = system: acute respiratory infections; conditions: N=40; P=0.004; listed as quercetin
[20] = target: COVID-19 S-protein (Severe acute respiratory syndrome coronavirus 2, UniProt P0DTC2)
[21] = system: SARS-CoV ACE2 receptor; conditions: studies with SARS-CoV; listed as quercetin
[22] = target: 3CLpro of MERS (Middle East respiratory syndrome-related coronavirus, UniProt K9N7C7)
[23] = target: Plpro protease of SARS-CoV (Severe acute respiratory syndrome coronavirus, UniProt P0C6X7)
[24] = system: 3C-like protease (3CLpro) activity of COVID-19
[25] = system: influenza; conditions: animal models of influenza
[26] = system: rhinovirus; conditions: rhinovirus infection in mice (COPD)
[27] = system: respiratory syndrome virus-1 vaccine; conditions: large mammal model
[28] = subset of subjects 40+ years (N=325), secondary analysis

3CLpro of MERS, sequence (K9N7C7 3248-3553 limits assumed): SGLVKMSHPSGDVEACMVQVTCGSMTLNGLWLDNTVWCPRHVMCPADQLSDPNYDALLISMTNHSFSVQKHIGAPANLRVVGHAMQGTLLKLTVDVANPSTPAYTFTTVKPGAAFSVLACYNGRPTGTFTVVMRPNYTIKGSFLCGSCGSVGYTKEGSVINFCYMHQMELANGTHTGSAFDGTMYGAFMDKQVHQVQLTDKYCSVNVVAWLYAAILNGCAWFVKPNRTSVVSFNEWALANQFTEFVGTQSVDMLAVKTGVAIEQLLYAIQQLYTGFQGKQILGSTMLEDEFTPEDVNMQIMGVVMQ

Vitamin E
risk of total acute respiratory infections ([1]; nursing home residents): reduced the risk
colds [1]: Decreased colds in older adults
colds ([1]; listed as vitamin E): reduced the risk
pneumonia ([1]; subset of nursing home residents with polymorphism): Decreased pneumonia in a subset
cell-dividing and IL-producing capacities of naive T cells ([2]; naive T cells, but not memory T cells): increased
T cell function in older adults [2]: increases
survival in viral pneumonia ([3]; mouse, in vivo): increases survival
viral load in viral lung infections ([3]; mouse, in vivo): Reduces viral load in viral
excessive lung inflammatory responses / inflammatory cytokine production ([3]; viral infection, influenza): dampens; also recorded: Reduces inflammatory
vascular endothelial function [4]: improve
in vivo delayed-type hypersensitivity skin response [5]: improves
antibody titer / antibody response to vaccines [5]: increase; also recorded: improves
survival from strep pneumonia infection [6]: Increases survival from

O=C(O[C@@H]1Cc2c(O)cc(O)cc2O[C@@H]1c1cc(O)c(O)c(O)c1)c1cc(O)c(O)c(O)c1 [EGCG, epigallocatechin gallate]
OR, clinically diagnosed influenza infection ([7]; 95% CI=0.07-0.76): 0.25
HR, days free from influenza infection ([7]; 95% CI=0.09-0.84): 0.27
reduced clinically diagnosed influenza infection ([7]; in vivo): 75%
reduced days free from influenza infection ([7]; in vivo): 73%
inhibition of 3CLpro of SARS-CoV [8]: Inhibits the (3CL^pro) activity
infectivity of a wide range of viruses [9]: Inhibits infectivity of a wide
pro-inflammatory cytokines [10]: down-regulates; also recorded: Down-regulatcs pro-
TLR4 and NF-κB protein levels, ROS, acute tissue injury [11]: Suppresses inflammatory
biomarkers of endothelial dysfunction such as ICAM-1 and VCAM-1 [12]: lowers
endothelin-1 production ([12]; endothelial cells): reduces
nitric oxide (NO) release ([12]; endothelial cells): induces
excessive endothelial oxidative stress ([12]; through effects on the Nrf2/HO-1 pathway): reduces
immune response to vaccination [13]: potentiated

zinc
reduced days of illness [14]: -1.65 days
acute respiratory infections in the elderly ([15]; double-blind, placebo controlled trial): reduced
lower respiratory infection [15]: adults and reduces lower
lower respiratory infection ([15]; listed as zinc): reduces
inhibition of RNA-dependent RNA polymerase [16]: Inhibits the RNA-dependent
T cell function in older adults [2]: Increases T cell function in older
T cell function in older adults ([2]; listed as zinc): increases
antibody titer / antibody response to vaccines [5]: increase; also recorded: restores
inflammation [17]: Reduces inflammation.

O=c1c(O)c(-c2ccc(O)c(O)c2)oc2cc(O)cc(O)c12 [Quercetin, quercetin]
effect on rates of upper respiratory infections ([18]; overall, N=1,002): no overall significant effect
reduced duration of upper respiratory infection (total sick days) [18, 28]: (−31%) in a secondary analysis
reduced severity of upper respiratory infection (symptom severity) [18, 28]: severity (−36%) and total sick days
incidence of acute respiratory infections [19]: significantly reduced
antagonist of S-protein binding to host ACE2 receptor, computer modeling [20]: other compounds as a top
antagonist of S-protein binding to host ACE2 receptor, computer modeling ([20]; listed as quercetin): top potential antagonist
binding to ACE2 receptor / antagonism of S-protein binding [21]: binds
inhibition of 3CLpro of SARS-CoV [8]: inhibits
inhibition of 3CLpro of MERS [22]: inhibits
inhibition of Plpro protease of SARS-CoV [23]: inhibits
inhibition of 3CLpro activity of COVID-19 [24]: Inhibits the 3C-like protease
superoxide radical formation, lung pathology, overall risk of infection induced by influenza [25]: Reduces superoxide
viral replication and risk of acute infection [25]: inhibits
cytokine storm / inflammation and lung injury [26]: inhibits cytokine storm and reduces lung injury
effects in vitro on endothelial cell pathways ([12]; in vitro): several beneficial effects
response to respiratory syndrome virus-1 vaccine [27]: improves
